Measurements from ChEMBL document CHEMBL3745703, “Preclinical characterization of substituted 6,7-dihydro-[1,2,4]triazolo[4,3-a]pyrazin-8(5H)-one P2X7 receptor antagonists” (Bioorg Med Chem Lett, 2016).
Values after ≈ are worked out from the molar mass of the structure shown.

Legend:
[1] = Plasma protein binding in human at 1 uM; type: ADME, cell-free; settings: read-out: PPB (converted)
[2] = Plasma protein binding in rat at 1 uM; type: ADME, cell-free; settings: read-out: PPB (converted)
[3] = Aqueous equilibrium solubility of the compound at pH 2; type: physicochemical
[4] = Aqueous equilibrium solubility of the compound at pH 7; type: physicochemical
[5] = Apparent permeability from apical to basolateral side in human Caco2 cells; type: ADME, cell-based; settings: Caco-2
[6] = Apparent permeability from basolateral to apical side in human Caco2 cells; type: ADME, cell-based; settings: Caco-2
[7] = Volume of distribution at steady state in rat at 1 mg/kg, iv and 5 mg/kg, po; type: ADME, organism-based; settings: in vivo, read-out: Vdss
[8] = Clearance in rat at 1 mg/kg, iv and 5 mg/kg, po; type: ADME, organism-based; settings: in vivo
[9] = Half life in rat at 1 mg/kg, iv and 5 mg/kg, po; type: ADME, organism-based; settings: in vivo
[10] = Oral bioavailability in rat at 5 mg/kg; type: ADME, organism-based; settings: in vivo
[11] = system: Brain; assay: Drug uptake in Sprague-Dawley rat brain at 10 mg/kg, po at Tmax; type: ADME, organism-based; settings: in vivo
[12] = Plasma concentration in Sprague-Dawley rat at 10 mg/kg, po at Tmax; type: ADME, organism-based
[13] = species on record: Rattus norvegicus; assay: Ex vivo receptor occupancy at P2X7 receptor in Sprague-Dawley rat hippocampus assessed as inhibition of [3H] A-804598 binding at Tmax by autoradiography; type: functional
[14] = molecular target: T1, P2X purinoceptor 7 (Homo sapiens, UniProt Q99572); assay: Antagonist activity at human P2X7 receptor expressed in 1321N1 cells assessed as inhibition of Bz-ATP-induced Ca2+ flux after 30 mins by FLIPR assay; type: cell-based
T1 sequence (Q99572 whole entry): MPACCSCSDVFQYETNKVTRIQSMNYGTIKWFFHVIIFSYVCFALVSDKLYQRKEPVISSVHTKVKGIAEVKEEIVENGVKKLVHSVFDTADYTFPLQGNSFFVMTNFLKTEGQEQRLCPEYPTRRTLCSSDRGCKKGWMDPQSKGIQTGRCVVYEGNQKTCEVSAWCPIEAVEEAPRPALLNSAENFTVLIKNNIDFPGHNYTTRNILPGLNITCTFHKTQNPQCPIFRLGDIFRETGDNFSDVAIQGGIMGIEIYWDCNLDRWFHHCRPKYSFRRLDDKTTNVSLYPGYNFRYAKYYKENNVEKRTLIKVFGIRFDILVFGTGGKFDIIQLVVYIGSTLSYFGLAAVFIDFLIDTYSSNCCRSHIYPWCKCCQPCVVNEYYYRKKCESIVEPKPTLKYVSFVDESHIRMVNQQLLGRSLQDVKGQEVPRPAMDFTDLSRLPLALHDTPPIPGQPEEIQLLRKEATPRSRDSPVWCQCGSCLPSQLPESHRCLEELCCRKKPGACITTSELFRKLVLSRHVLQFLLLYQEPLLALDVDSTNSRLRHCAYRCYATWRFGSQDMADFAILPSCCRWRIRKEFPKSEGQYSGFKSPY

[15] = molecular target: T2, P2X purinoceptor 7 (Rattus norvegicus, UniProt Q64663); assay: Antagonist activity at rat P2X7 receptor expressed in 1321N1 cells assessed as inhibition of Bz-ATP-induced Ca2+ flux after 30 mins by FLIPR assay; type: cell-based
T2 sequence (Q64663 whole entry): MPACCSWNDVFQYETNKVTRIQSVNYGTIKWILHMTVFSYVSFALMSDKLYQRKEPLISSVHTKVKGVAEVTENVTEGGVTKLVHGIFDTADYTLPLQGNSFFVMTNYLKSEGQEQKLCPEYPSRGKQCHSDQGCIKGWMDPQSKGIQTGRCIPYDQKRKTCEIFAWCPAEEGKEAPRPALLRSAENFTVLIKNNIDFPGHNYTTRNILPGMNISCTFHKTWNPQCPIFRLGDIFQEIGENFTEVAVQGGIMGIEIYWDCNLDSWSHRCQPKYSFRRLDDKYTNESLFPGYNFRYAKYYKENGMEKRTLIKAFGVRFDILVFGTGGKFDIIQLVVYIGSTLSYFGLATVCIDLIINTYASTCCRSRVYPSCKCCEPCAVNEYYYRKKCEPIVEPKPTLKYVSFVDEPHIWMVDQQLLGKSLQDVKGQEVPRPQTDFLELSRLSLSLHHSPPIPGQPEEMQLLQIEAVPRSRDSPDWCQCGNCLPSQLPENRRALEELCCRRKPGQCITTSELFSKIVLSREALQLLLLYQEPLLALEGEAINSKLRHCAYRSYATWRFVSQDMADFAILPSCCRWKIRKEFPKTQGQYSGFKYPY

[16] = Ratio of drug level in brain to plasma in Sprague-Dawley rat at 10 mg/kg, po; type: ADME, organism-based; settings: read-out: BPR
[17] = system: Rattus norvegicus; assay: Ex vivo receptor occupancy at P2X7 receptor in po dosed Sprague-Dawley rat hippocampus assessed as inhibition of [3H]JNJ-54232334 binding after 30 mins; type: functional
[18] = Brain protein binding in Sprague-Dawley rat at 10 mg/kg, po; type: ADME, organism-based; settings: read-out: PB (converted)
[19] = Plasma protein binding in Sprague-Dawley rat at 10 mg/kg, po; type: ADME, organism-based; settings: read-out: PPB (converted)
[20] = molecular target: Voltage-gated inwardly rectifying potassium channel KCNH2 (Homo sapiens, UniProt Q12809); assay: Displacement of dofetilide from human ERG channel
Chain of Voltage-gated inwardly rectifying potassium channel KCNH2 (Q12809 whole entry): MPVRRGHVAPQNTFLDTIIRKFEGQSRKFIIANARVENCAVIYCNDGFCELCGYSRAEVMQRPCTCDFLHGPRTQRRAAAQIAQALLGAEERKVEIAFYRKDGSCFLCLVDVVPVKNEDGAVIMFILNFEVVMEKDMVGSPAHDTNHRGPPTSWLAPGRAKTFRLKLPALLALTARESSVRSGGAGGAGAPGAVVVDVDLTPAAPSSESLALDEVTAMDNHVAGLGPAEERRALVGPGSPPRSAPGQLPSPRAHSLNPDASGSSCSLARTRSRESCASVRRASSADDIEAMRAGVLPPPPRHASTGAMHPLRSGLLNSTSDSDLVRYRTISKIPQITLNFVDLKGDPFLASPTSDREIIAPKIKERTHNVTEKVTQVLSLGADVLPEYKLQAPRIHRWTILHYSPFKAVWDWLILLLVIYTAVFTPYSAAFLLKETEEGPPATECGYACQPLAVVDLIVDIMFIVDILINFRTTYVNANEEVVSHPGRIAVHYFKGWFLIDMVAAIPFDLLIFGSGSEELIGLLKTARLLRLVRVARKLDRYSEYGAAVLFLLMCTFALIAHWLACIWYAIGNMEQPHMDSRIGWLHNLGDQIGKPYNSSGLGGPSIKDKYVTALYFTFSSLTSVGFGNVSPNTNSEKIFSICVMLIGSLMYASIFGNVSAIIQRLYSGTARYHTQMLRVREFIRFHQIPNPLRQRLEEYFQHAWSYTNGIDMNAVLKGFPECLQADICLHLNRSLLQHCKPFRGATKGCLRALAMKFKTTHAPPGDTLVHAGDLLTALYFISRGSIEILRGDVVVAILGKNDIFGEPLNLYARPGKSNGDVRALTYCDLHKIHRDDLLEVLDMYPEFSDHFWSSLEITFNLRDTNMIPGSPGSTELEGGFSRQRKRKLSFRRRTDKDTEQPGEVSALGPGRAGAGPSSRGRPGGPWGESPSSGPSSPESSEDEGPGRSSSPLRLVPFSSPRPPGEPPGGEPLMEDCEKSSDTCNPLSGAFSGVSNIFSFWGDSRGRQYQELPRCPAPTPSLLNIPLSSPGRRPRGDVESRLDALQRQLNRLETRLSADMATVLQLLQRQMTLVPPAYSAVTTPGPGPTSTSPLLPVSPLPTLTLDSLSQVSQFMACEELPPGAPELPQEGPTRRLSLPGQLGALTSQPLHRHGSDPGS

[21] = molecular target: Cytochrome P450 2C19 (Homo sapiens, UniProt P33261); assay: Inhibition of CYP2C19 (unknown origin); type: ADME
Chain of Cytochrome P450 2C19 (P33261 whole entry): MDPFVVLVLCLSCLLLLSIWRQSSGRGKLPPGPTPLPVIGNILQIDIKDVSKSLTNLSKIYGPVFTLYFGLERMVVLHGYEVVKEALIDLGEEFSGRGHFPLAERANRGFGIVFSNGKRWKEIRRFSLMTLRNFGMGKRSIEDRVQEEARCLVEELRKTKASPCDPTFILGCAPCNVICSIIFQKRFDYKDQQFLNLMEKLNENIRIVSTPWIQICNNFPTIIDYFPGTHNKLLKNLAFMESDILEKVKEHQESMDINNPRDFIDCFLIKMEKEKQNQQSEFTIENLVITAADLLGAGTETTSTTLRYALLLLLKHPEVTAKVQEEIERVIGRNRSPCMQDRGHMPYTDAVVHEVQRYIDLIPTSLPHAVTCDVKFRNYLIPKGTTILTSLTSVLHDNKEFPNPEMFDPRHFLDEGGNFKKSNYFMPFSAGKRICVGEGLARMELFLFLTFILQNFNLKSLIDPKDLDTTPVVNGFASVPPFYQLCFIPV

[22] = Inhibition of CYP450 (unknown origin); type: ADME, Homo sapiens
[23] = species on record: Rattus norvegicus; assay: animal or person; settings: Sprague-Dawley, P2X7
Description: Ex vivo receptor occupancy at P2X7 receptor in po dosed Sprague-Dawley rat hippocampus assessed as inhibition of [3H]JNJ-54232334 binding by measuring brain level after 30 mins

[24] = species on record: Rattus norvegicus; assay: animal or person; settings: Sprague-Dawley, P2X7, Plasma
Description: Ex vivo receptor occupancy at P2X7 receptor in po dosed Sprague-Dawley rat hippocampus assessed as inhibition of [3H]JNJ-54232334 binding by measuring plasma level after 30 mins

[25] = Unbound brain to plasma partition ratio in Sprague-Dawley rat at 0.8 mg/kg, po; settings: read-out: K(p,uu,brain)
[26] = Selectivity ratio of IC50 for rat P2X7 receptor to IC50 for human P2X7 receptor
[27] = Extraction ratio in human liver microsomes at 1 uM; type: ADME; settings: read-out: ERH
[28] = Extraction ratio in rat liver microsomes at 1 uM; type: ADME; settings: read-out: ERH
[29] = Efflux ratio of apparent permeability from basolateral to apical side over apical to basolateral side in human Caco2 cells; type: ADME, cell-based; settings: Caco-2

| SMILES | fraction unbound at 1 µM [1] | fraction unbound at 1 µM [2] | solubility thermodynamic [3] [µM] | solubility thermodynamic [4] [µM] | Papp A→B [5] [×10⁻⁶ cm/s] | Papp B→A [6] [×10⁻⁶ cm/s] | Vd [7] [L/kg] | clearance [8] [mL/min/kg] | half-life [9] [h] | bioavailability [10] [%] | Drug uptake [11] [ng/mL] | Cmax [12] [ng/mL] | Occ [13] [%] | IC50 [14] [nM] | IC50 [15] [nM] | other results |
| --- | --- | --- | --- | --- | --- | --- | --- | --- | --- | --- | --- | --- | --- | --- | --- | --- |
| C[C@H]1Cn2c(nnc2-c2cc[nH]n2)C(=O)N1Cc1cccc(C(F)(F)F)c1Cl | 0.08 | 0.1 | 41 (≈ 16.8 µg/mL) | 95 (≈ 39 µg/mL) | 5.4 | 65 | 4.2 | 13 | 3.9 | 81 | 41 | 1310 | 3 | – | – | – |
| C[C@H]1Cn2c(nnc2-c2cnccn2)C(=O)N1Cc1cccc(C(F)(F)F)c1 | – | – | – | – | – | – | – | – | – | – | – | – | – | 3.6 | 4140 | – |
| O=C1c2nnc(-c3cnccn3)n2CCN1Cc1cccc(C(F)(F)F)c1Cl | – | – | – | – | – | – | – | – | – | – | – | – | – | 440 | 8670 | – |
| C[C@H]1Cn2c(nnc2-c2ncccn2)C(=O)N1Cc1cccc(C(F)(F)F)c1Cl | 0.21 | 0.17 | 176 (≈ 74.4 µg/mL) | 201 (≈ 85 µg/mL) | 4.4 | 64 | 3.3 | 11 | 4.8 | 80 | 116 | 2790 | 41 | – | – | – |
| C[C@H]1Cn2c(nnc2-c2cnccn2)C(=O)N1Cc1cccc(C(F)(F)F)c1Cl | 0.13 | 0.1 | 89 (≈ 37.6 µg/mL) | 56 (≈ 23.7 µg/mL) | 47 | 50 | 1.5 | 19 | 1 | 125 | 672 | 945 | 78 | – | – | Kp [16]: 0.7; ED50 [17]: 0.8 mg/kg; Occ [17]: Dose-dependent effect; fraction unbound [18]: 0.046; fraction unbound [19]: 0.096; IC50 [20]: > 10000 nM; IC50 [21]: 7200 nM; IC50 [22]: > 10000 nM; EC50 [23]: 0.066 µg/mL (≈ 0.156 µM); EC50 [24]: 0.062 µg/mL (≈ 0.147 µM); Kp uu [25]: 0.51 |
| C[C@H]1Cn2c(nnc2-c2ccccn2)C(=O)N1Cc1cccc(C(F)(F)F)c1Cl | – | – | – | – | – | – | – | – | – | – | – | – | – | 0.5 | 350 | Ratio IC50 [26]: 100 |
| C[C@H]1Cn2c(nnc2-c2cnccn2)C(=O)N1Cc1c(Cl)cccc1Cl | – | – | – | – | – | – | – | – | – | – | – | – | – | – | 2380 | – |
| C[C@H]1Cn2c(nnc2-c2cccnc2)C(=O)N1Cc1cccc(C(F)(F)F)c1Cl | 0.22 | 0.17 | > 400 | 375 (≈ 158 µg/mL) | 6.2 | 73 | 5 | 21 | 2.8 | 82 | 43 | 1060 | 0 | 1.9 | 88 | hepatic extraction ratio at 1 µM [27]: 0.3; Ratio IC50 [26]: 100; hepatic extraction ratio at 1 µM [28]: 0.3; efflux ratio [29]: > 10 |
| C[C@H]1Cn2c(nnc2-c2ccn(C)n2)C(=O)N1Cc1cccc(C(F)(F)F)c1Cl | – | – | – | – | – | – | – | – | – | – | – | – | – | 4.2 | 960 | Ratio IC50 [26]: 100 |
| O=C1c2nnn(-c3cnccn3)c2CCN1Cc1cccc(C(F)(F)F)c1Cl | – | – | – | – | – | – | – | – | – | – | – | – | – | > 10000 | > 10000 | – |
| C[C@H]1Cn2c(nnc2-c2cnccn2)C(=O)N1Cc1ccccc1Cl | – | – | – | – | – | – | – | – | – | – | – | – | – | – | > 10000 | – |
| C[C@H]1Cn2c(nnc2-c2ccc(F)cn2)C(=O)N1Cc1cccc(C(F)(F)F)c1Cl | – | – | – | – | – | – | – | – | – | – | – | – | – | 0.7 | – | – |
